{
  "source": "patent US11707442B2",
  "about": "“Antibacterial and antifungal compounds” (The General Hospital Corporation, priority 2015, dated 2023)",
  "key": {"[1]": {"test_system": "S. aureus", "assay": "Minimal inhibitory concentration (MIC), broth microdilution", "assay_type": "cell-based, Staphylococcus aureus", "settings": "Staphylococcus aureus", "how_it_was_run": "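MIC values against methicillin-resistant Staphylococcus aureus were determined by standard broth microdilution following Clinical and Laboratory Standards Institute guidance (CLSI document M07-A8). Each well held 100 μl of test compound plus bacterial cells in MH broth, with the starting OD600 set to 0.03. Plates were incubated 18 hrs at 35° C. and absorbance was then read at 595 nm.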"}, "[2]": {"test_system": "A. baumannii", "assay": "MIC, broth microdilution", "assay_type": "cell-based, Acinetobacter baumannii", "settings": "Acinetobacter baumannii, ATCC17978; A. baumannii ATCC 17978; read-out: Minimum inhibitory concentration", "excerpt": "(§1) Bacterial strains and growth conditions and persister isolation: methicillin-resistant S. aureus (MRSA) strain MW2 BAA-1707, vancomycin-resistant S. aureus strain VRS 1, 11 clinical S. aureus isolates, 8 clinical Enterococcus faecium isolates, Klebsiella pneumoniae WGLW2 (BEI Resources, Manassas, Va., USA), Acinetobacter baumannii ATCC 17978, Pseudomonas aeruginosa PA14, and Enterobacter aerogenes ATCC 13048 were used to test antimicrobial activity (See Table 1a). S. aureus and E. faecium strains were grown in tryptic soy broth (TSB) (BD, Franklin Lakes, N.J., USA) or brain-heart infusion (BHI) broth (BD, Franklin Lakes, N.J., USA), respectively at 37° C. at 225 rpm. K. pneumoniae, A. baumannii, P. aeruginosa, and E. aerogenes were grown in Luria Bertani (LB) broth (BD, Franklin Lakes, N.J., USA).\n(§2) To test the bacterial MICs for compounds described herein, the total volume in each well was 100 μl of test compounds and bacterial cells in MH broth. […] The bacterial concentration was adjusted to an initial OD600 of 0.03. After incubation at 35° C. for 18 hrs, the absorbance was measured at 595 nm in accordance with CLSI document M07-A8. The MICs of antibiotics were determined by the standard microdilution method recommended by the Clinical and Laboratory Standards Institute."}, "[3]": {"test_system": "P. aeruginosa", "assay": "MIC, broth microdilution", "assay_type": "cell-based, Pseudomonas aeruginosa", "settings": "Pseudomonas aeruginosa; P. aeruginosa PA14; read-out: Minimum inhibitory concentration", "excerpt": "as §1, §2"}, "[4]": {"test_system": "C. elegans infected with MRSA strain MW2", "assay_type": "in vivo", "settings": "concentrations above the MIC", "experimental": "The C. elegans-MRSA liquid infection assay has been described (Rajamuthiah et al. Plos One. 2014; 9(2):e89189). In brief, 4,500 glp-4 (bn2); sek-1(km4) L1 hatchlings were grown on SK-HB101 agar plates for 52 hours at the restrictive temperature of 25° C. until animals became sterile young adults and later harvested with M9 buffer. S. aureus MW2 was grown overnight at 37° C. in TSB, first under aerobic conditions and later shifted to anaerobic growth conditions at 37° C. The infection assay was performed in standard 384-well assay plates, in the presence of the compound being tested or 1% dimethyl sulfoxide (DMSO) as a control. Bacteria were added to the wells at a final OD600 of 0.06, followed by the use of a Complex Object Parametric Analyzer and Sorter (COPAS) large particle sorter (Union Biometrica, Holliston, Mass., USA) to transfer 15 adult worms to each well of an assay plate. After 5 days of incubation in a humidified chamber at 25° C., the bacteria and other debris were washed from the wells with a microplate washer and the worms were stained with the vital dye Sytox Orange (Life Technologies). After overnight incubation at 25° C. in a humidified chamber, the plates were imaged using an Image Xpress Micro automated microscope (Molecular Devices, Sunnyvale, Calif., USA), capturing both transmitted light and TRITC (535 nm excitation, 610 nm emission) fluorescent images with a 2× objective. The images from the infection assay were processed using the open source image analysis software CellProfiler and analysis modules as described previously. The ratio of Sytox worm area to bright field worm area, and the resultant percentage survival data, is calculated by the software for each well of the assay plates. The assay was performed in triplicate comparing the survival of worms at various concentrations of drugs.\nKilling assays were carried out as described in Methods using S. aureus MRSA MW2 and 10 μg/ml retinoids, 10 μg/ml vancomycin (positive control), or 1% DMSO (negative control) at 25° C. for 5 days. Data are representative of three independent experiments. (B) Chemical structures of synthetic retinoids. (C) Growth of MRSA strain MW2 exposed to the indicated concentrations of compounds was quantified by measuring OD600 after 18 h in tryptic soy broth (TSB). (D) C. elegans infected with MRSA strain MW2 was treated with indicated concentrations of compounds. Percent survival of C. elegans was normalized to C. elegans treated with DMSO. (E-F) MRSA persisters prepared as described in Methods were treated with the indicated concentrations of each retinoid. Viability was measured by serial dilution and plating on TSA plates. The data points on the x-axis are below the level of detection (2×10^2 CFU/ml). (E,F) Results are shown as means±s.d.; n=3."}, "[5]": {"test_system": "Salmonella typhimurium strains TA 1535 and TA 1538", "experimental": "The Ames test was conducted using histidine auxotroph Salmonella typhimurium strains TA 1535 and TA 1538. To test mutagenic potential of the synthetic retinoids themselves and their metabolic products, the assay was conducted both with and without rat liver S9 fraction (Moltox, Boone, N.C., USA). Briefly, 100 μl of bacterial overnight cultures was added into 500 μl of phosphate buffer containing a range of amounts of the retinoids dissolved in 10 μl DMSO and with or without 4% S9. After incubation at 37° C. for 1 h, the samples were added into 2 ml of soft agar including 0.5 mM of histidine/biotin, mixed, and poured onto minimal glucose agar plates. The plates were incubated at 37° C. for 48 h, and the revertant colonies were counted. 10 μl DMSO was used as a negative control. […] 5 μg/plate 2-aminoanthracene was used as a positive control for both strains in the metabolic activation system. The test was performed in triplicate."}},
  "note": "Where two headings read alike, the source gives them in different places.",
  "data": [
    {"molecule": "O=C(O)c1ccc2cc(-c3ccc(O)c(C45CC6CC(CC(C6)C4)C5)c3)ccc2c1", "note": "[CD437, 6-(4-hydroxy-3-tricyclo[3.3.1.13,7]dec-1-ylphenyl)-2-naphthalenecarboxylic acid]", "values": [
      {"measurement": "MIC", "setting": "[1]; MRSA, 28 clinical MRSA isolates, 28/28 isolates, read-out: MIC", "value": "≤ 2", "unit": "µg/mL"},
      {"measurement": "MIC", "setting": "[1]; S. aureus BF1, read-out: Minimum inhibitory concentration", "value": 2, "unit": "µg/mL"},
      {"measurement": "MIC", "setting": "[1]; S. aureus BF2, read-out: Minimum inhibitory concentration", "value": 1, "unit": "µg/mL"},
      {"measurement": "MIC", "setting": "[1]; S. aureus BF3, read-out: Minimum inhibitory concentration", "value": 1, "unit": "µg/mL"},
      {"measurement": "MIC", "setting": "[1]; S. aureus BF4, read-out: Minimum inhibitory concentration", "value": 2, "unit": "µg/mL"},
      {"measurement": "MIC", "setting": "[1]; S. aureus BF5, read-out: Minimum inhibitory concentration", "value": 1, "unit": "µg/mL"},
      {"measurement": "MIC", "setting": "[1]; S. aureus BF6, read-out: Minimum inhibitory concentration", "value": 1, "unit": "µg/mL"},
      {"measurement": "MIC", "setting": "[1]; S. aureus BF7, read-out: Minimum inhibitory concentration", "value": 1, "unit": "µg/mL"},
      {"measurement": "MIC", "setting": "[1]; S. aureus BF8, read-out: Minimum inhibitory concentration", "value": 1, "unit": "µg/mL"},
      {"measurement": "MIC", "setting": "[1]; S. aureus BF9, read-out: Minimum inhibitory concentration", "value": 1, "unit": "µg/mL"},
      {"measurement": "MIC", "setting": "[1]; S. aureus BF10, read-out: Minimum inhibitory concentration", "value": 1, "unit": "µg/mL"},
      {"measurement": "MIC", "setting": "[1]; S. aureus BF11, read-out: Minimum inhibitory concentration", "value": 1, "unit": "µg/mL"},
      {"measurement": "MIC", "setting": "[1]; S. aureus JE2 (wild-type), read-out: MIC", "value": 1.5, "unit": "µg/mL"},
      {"measurement": "MIC", "setting": "[1]; S. aureus MW2, read-out: Minimum inhibitory concentration", "value": 1, "unit": "µg/mL"},
      {"measurement": "MIC", "setting": "[1]; S. aureus NE896 (JE2 yjbH::ϕNΣ)", "value": 2, "unit": "µg/mL"},
      {"measurement": "MIC", "setting": "[1]; S. aureus NE1645 (JE2 manA::ϕNΣ)", "value": 3, "unit": "µg/mL"},
      {"measurement": "MIC", "setting": "[1]; S. aureus NE1756 (JE2 graS::ϕNΣ)", "value": 2, "unit": "µg/mL"},
      {"measurement": "MIC", "setting": "[1]; S. aureus VRS1, read-out: Minimum inhibitory concentration", "value": 1, "unit": "µg/mL"},
      {"measurement": "MIC", "setting": "[1]; methicillin resistant S. aureus (MRSA) strain MW2, read-out: MIC", "value": 1, "unit": "µg/mL"},
      {"measurement": "MIC", "setting": "[2]", "value": "> 64", "unit": "µg/mL"},
      {"measurement": "MIC", "setting": "[3]", "value": "> 64", "unit": "µg/mL"},
      {"measurement": "C. elegans animals surviving MRSA infection", "setting": "[4]", "value": 100, "unit": "%"},
      {"measurement": "genotoxic potential", "setting": "[5]; Ames test, result in words", "value": "did not show significant genotoxic potential"},
      {"measurement": "Number of revertants (T1535)", "setting": "[5]; With S9, 5 μg/plate", "value": "6 ± 3"},
      {"measurement": "Number of revertants (T1538)", "setting": "[5]; With S9, 5 μg/plate", "value": "9 ± 3"},
      {"measurement": "Number of revertants (T1535)", "setting": "[5]; With S9, 25 μg/plate", "value": "8 ± 3"},
      {"measurement": "Number of revertants (T1538)", "setting": "[5]; With S9, 25 μg/plate", "value": "10 ± 2"},
      {"measurement": "Number of revertants (T1535)", "setting": "[5]; With S9, 100 μg/plate", "value": "8 ± 3"},
      {"measurement": "Number of revertants (T1538)", "setting": "[5]; With S9, 100 μg/plate", "value": "6 ± 1"},
      {"measurement": "Number of revertants (T1535)", "setting": "[5]; Without S9, 5 μg/plate", "value": "6 ± 2"},
      {"measurement": "Number of revertants (T1538)", "setting": "[5]; Without S9, 5 μg/plate", "value": "5 ± 2"},
      {"measurement": "Number of revertants (T1535)", "setting": "[5]; Without S9, 25 μg/plate", "value": "5 ± 2"},
      {"measurement": "Number of revertants (T1538)", "setting": "[5]; Without S9, 25 μg/plate", "value": "4 ± 1"},
      {"measurement": "Number of revertants (T1535)", "setting": "[5]; Without S9, 100 μg/plate", "value": "8 ± 2"},
      {"measurement": "Number of revertants (T1538)", "setting": "[5]; Without S9, 100 μg/plate", "value": "3 ± 3"}
    ]}
  ]
}
